# Source: patent publication US11673910B2, “Macrolides with modified desosamine sugars and uses thereof” (Zikani Therapeutics, Inc., priority 2017, dated 2023)
# Experiments:
# Assay type in all cases: cell-based
# [1] = test system: E. coli strain MP-4; experiment: Broth dilution MIC determination (CLSI) against E. coli strain MP-4; conditions: Escherichia coli, MP4
# In short: (§1)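 MICs of the macrolides were determined by standard CLSI broth dilution. Values are binned: +++ for ≤4 mg/L, ++ for ≥8 and <32 mg/L, + for ≥32 mg/L.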
# [2] = test system: K. pneumoniae strain MP-548; experiment: Broth dilution MIC determination (CLSI) against K. pneumoniae strain MP-548; conditions: Klebsiella pneumoniae, MP548
# In short: as §1
# [3] = test system: P. aeruginosa strain MP-3; experiment: Broth dilution MIC determination (CLSI) against P. aeruginosa strain MP-3; conditions: Pseudomonas aeruginosa, MP3
# In short: as §1
# [4] = test system: A. baumannii strain MP-15; experiment: Broth dilution MIC determination (CLSI) against A. baumannii strain MP-15; conditions: Acinetobacter baumannii, MP15
# In short: as §1
# [5] = test system: S. aureus strain MP-12; experiment: Broth dilution MIC determination (CLSI) against S. aureus strain MP-12; conditions: Staphylococcus aureus, MP12, strain MP-12
# In short: as §1
SMILES,MIC [1] [µg/mL],MIC [2] [µg/mL],MIC [3] [µg/mL],MIC [4] [µg/mL],MIC [5] [µg/mL]
"CC[C@H]1OC(=O)C(C)C(=O)[C@H](C)[C@@H](OC2OC(CN(C)CCOC)CC(N(C)C)C2O)[C@](C)(OC)C[C@@H](C)CN[C@H](C)[C@H]2NC(=O)O[C@@]21C (stereo partly drawn) [Compound 131, 3-Descladinosyl-3-oxo-6-O-methyl-N9a-desmethyl-11,12-dideoxy-12,11-(oxycarbonylimino)-6′-[N-(methyl)-2-methoxyethylamino]Azithromycin]",≤ 4,8 to 32,≥ 32,≥ 32,≥ 32
CC[C@H]1OC(=O)C(C)C(=O)[C@H](C)[C@@H](O[C@@H]2OC(CNCc3cncc(-n4cncn4)n3)CC(N(C)C)C2O)[C@](C)(OC)C[C@@H](C)CN[C@H](C)[C@H]2NC(=O)O[C@@]21C (stereo partly drawn) [Compound 26],≥ 32,≥ 32,≥ 32,≥ 32,≥ 32
"CC[C@H]1OC(=O)C(C)C(=O)[C@H](C)[C@@H](OC2OC(CN(C)C(=O)C(C)(C)C)CC(N(C)C)C2O)[C@](C)(OC)C[C@@H](C)CN[C@H](C)[C@H]2NC(=O)O[C@@]21C (stereo partly drawn) [Compound 170, 3-Descladinosyl-3-oxo-6-O-methyl-N9a-desmethyl-11,12-dideoxy-12,11-(oxycarbonylimino)-6′-(N-methyl-N-pivaloylamino) Azithromycin]",8 to 32,≥ 32,≥ 32,≥ 32,≥ 32
CC[C@H]1OC(=O)[C@@]2(C)CCOC(C)(C[C@@H](C)CN(CC)[C@H](C)[C@H]3NC(=O)O[C@@]31C)[C@H](O[C@@H]1OC(C)CC(N(C)C)C1O)[C@@H](C)C2=O (stereo partly drawn) [Compound 221],≤ 4,≤ 4,≥ 32,≥ 32,≤ 4
"CC[C@H]1OC(=O)C(C)C(=O)[C@H](C)[C@@H](OC2OC(CNC)CC(N(C)C)C2O)[C@](C)(OC)C[C@@H](C)CN[C@H](C)[C@H]2NC(=O)O[C@@]21C (stereo partly drawn) [Compound 106, 3-Descladinosyl-3-oxo-6-O-methyl-N9a-desmethyl-11,12-dideoxy-12,11-(oxycarbonylimino)-6′-methylamino Azithromycin]",8 to 32,≥ 32,≥ 32,≥ 32,≥ 32
"CC[C@H]1OC(=O)C(C)C(=O)[C@H](C)[C@@H](O[C@@H]2O[C@H](C(C)NCC3CC3)CC(N(C)C)[C@H]2O)[C@](C)(OC)C[C@@H](C)CN[C@H](C)[C@H]2NC(=O)O[C@@]21C (stereo partly drawn) [Compound 178, 3-Descladinosyl-3-oxo-6-O-methyl-N9a-desmethyl-11,12-dideoxy-12,11-(oxycarbonylimino)-6′-((R,S)-(cyclopropylmethylamino)ethyl) Azithromycin]",≤ 4,8 to 32,≥ 32,≥ 32,≥ 32
CC[C@H]1OC(=O)[C@@]2(C)CCOC(C)(C[C@@H](C)CN(C3CC3)[C@H](C)[C@H]3NC(=O)O[C@@]31C)[C@H](O[C@@H]1OC(C)CC(N(C)C)C1O)[C@@H](C)C2=O (stereo partly drawn) [Compound 210],8 to 32,≥ 32,≥ 32,≥ 32,≤ 4
"CC[C@H]1OC(=O)C(C)C(=O)[C@H](C)[C@@H](O[C@@H]2O[C@H](CNCC3CC3)CC(N(C)C)[C@H]2O)[C@](C)(OC)C[C@@H](C)CN(C)[C@H](C)[C@H]2NC(=O)O[C@@]21C (stereo partly drawn) [Compound 162, 3-Descladinosyl-3-oxo-6-O-methyl-11,12-dideoxy-12,11-(oxycarbonylimino)-6′-cyclopropylmethylamino Azithromycin]",≤ 4,8 to 32,≥ 32,≥ 32,≥ 32
CC[C@H]1OC(=O)[C@@](C)(F)C(=O)[C@H](C)[C@@H](O[C@@H]2OC(COC/C=C/c3cnc4ccccc4c3)CC(N(C)C)C2O)[C@](C)(OC)C[C@@H](C)C(=O)[C@H](C)[C@H]2NC(=O)O[C@@]21C (stereo partly drawn) [Compound 104],≥ 32,≥ 32,≥ 32,8 to 32,≤ 4
"CC[C@H]1OC(=O)C(C)C(=O)[C@H](C)[C@@H](OC2OC(CN(C)C(C)C)CC(N(C)C)C2O)[C@](C)(OC)C[C@@H](C)CN(C)[C@H](C)[C@H]2NC(=O)O[C@@]21C (stereo partly drawn) [Compound 160, 3-Desdadinosyl-3-oxo-6-O-methyl-9a-desmethyl-11,12-dideoxy-12,11-(oxycarbonylimino)-6′-isopropylmethylamino Azithromycin]",≤ 4,≥ 32,≥ 32,≥ 32,≥ 32
"CC[C@H]1OC(=O)C(C)C(=O)[C@H](C)[C@@H](OC2OC(CN3CC(F)(F)C3)CC(N(C)C)C2O)[C@](C)(OC)C[C@@H](C)CN[C@H](C)[C@H]2NC(=O)O[C@@]21C (stereo partly drawn) [Compound 139, 3-Descladinosyl-3-oxo-6-O-methyl-N9a-desmethyl-11,12-dideoxy-12,11-(oxycarbonylimino)-6′-(3″,3″-difluoroazetidinyl) Azithromycin]",≤ 4,8 to 32,≥ 32,8 to 32,8 to 32
CC[C@H]1OC(=O)[C@@]2(C)CCOC(C)(C[C@@H](C)CN[C@H](C)[C@H]3NC(=O)O[C@@]31C)[C@H](O[C@@H]1O[C@H](CNCC(F)(F)F)C[C@H](N(C)C)[C@H]1O)[C@@H](C)C2=O [Compound 206],≤ 4,8 to 32,≥ 32,≥ 32,≤ 4

# Continued, values first:
MIC [1] [µg/mL],MIC [2] [µg/mL],MIC [3] [µg/mL],MIC [4] [µg/mL],MIC [5] [µg/mL],SMILES
≤ 4,8 to 32,≥ 32,8 to 32,8 to 32,"CC[C@H]1OC(=O)C(C)C(=O)[C@H](C)[C@@H](OC2OC(CNC3(C)CC3)CC(N(C)C)C2O)[C@](C)(OC)C[C@@H](C)CN[C@H](C)[C@H]2NC(=O)O[C@@]21C (stereo partly drawn) [Compound 133, 3-Descladinosyl-3-oxo-6-O-methyl-N9a-desmethyl-11,12-dideoxy-12,11-(oxycarbonylimino)-6′-(1-methyl-1-cyclopropylamino) Azithromycin]"
≥ 32,≥ 32,≥ 32,≥ 32,≥ 32,"CC[C@H]1OC(=O)C(C)(C)C(=O)[C@H](C)[C@@H](O[C@@H]2O[C@H](CNC3CC3)CC(N(C)C)[C@H]2O)[C@](C)(OC)C[C@@H](C)CN(C)[C@H](C)[C@H]2NC(=O)O[C@@]21C (stereo partly drawn) [Compound 190, 2-Methyl-3-descladinosyl-3-oxo-6-O-methyl-N9a-desmethyl-11,12-dideoxy-12,11-(oxycarbonylimino)-6′-cylcopropylamino Azithromycin]"
≥ 32,≥ 32,≥ 32,≥ 32,≥ 32,"CC[C@H]1OC(=O)C(C)C(=O)[C@H](C)[C@@H](O[C@@H]2O[C@H]([C@@H](C)N(C)C)CC(N(C)C)[C@H]2O)[C@](C)(OC)C[C@@H](C)CN[C@H](C)[C@H]2NC(=O)O[C@@]21C (stereo partly drawn) [Compound 176, 3-Descladinosyl-3-oxo-6-O-methyl-N9a-desmethyl-11,12-dideoxy-12,11-(oxycarbonylimino)-6′-((R)-(dimethylamino)ethyl) Azithromycin]"
8 to 32,≥ 32,≥ 32,8 to 32,8 to 32,"CC[C@H]1OC(=O)C(C)C(=O)[C@H](C)[C@@H](O[C@@H]2O[C@H](CCC3CC3)CC(N(C)C)[C@H]2O)[C@](C)(OC)C[C@@H](C)CN[C@H](C)[C@H]2NC(=O)O[C@@]21C (stereo partly drawn) [Compound 185, 3-Descladinosyl-3-oxo-6-O-methyl-N9a-desmethyl-11,12-dideoxy-12,11-(oxycarbonylimino)-6′-cyclopropylmethyl Azithromycin]"
≤ 4,≥ 32,≥ 32,8 to 32,≥ 32,CC[C@H]1OC(=O)C(C)C(=O)[C@H](C)[C@@H](O[C@@H]2OC(CNCc3ccc(C(F)(F)F)cc3)CC(N(C)C)C2O)[C@](C)(OC)C[C@@H](C)CN[C@H](C)[C@H]2NC(=O)O[C@@]21C (stereo partly drawn) [Compound 35]
≤ 4,≤ 4,≥ 32,≥ 32,8 to 32,"CC[C@H]1OC(=O)C(C)C(=O)[C@H](C)[C@@H](OC2OC(CNC3CC3)CC(N(C)C)C2O)[C@](C)(OC)C[C@@H](C)CN[C@H](C)[C@H]2NC(=O)O[C@@]21C (stereo partly drawn) [Compound 118, 3-Descladinosyl-3-oxo-6-O-methyl-N9a-desmethyl-11,12-dideoxy-12,11-(oxycarbonylimino)-6′-cyclopropylamino Azithromycin]"
≤ 4,≥ 32,≥ 32,≥ 32,≥ 32,CC[C@H]1OC(=O)C(C)C(=O)[C@H](C)[C@@H](O[C@@H]2OC(CNCc3cccc(OC)c3)CC(N(C)C)C2O)[C@](C)(OC)C[C@@H](C)CN[C@H](C)[C@H]2NC(=O)O[C@@]21C (stereo partly drawn) [Compound 43]
≤ 4,8 to 32,≥ 32,8 to 32,8 to 32,"CC[C@H]1OC(=O)C(C)C(=O)[C@H](C)[C@@H](OC2OC(CN(C)C3CC3)CC(N(C)C)C2O)[C@](C)(OC)C[C@@H](C)CN[C@H](C)[C@H]2NC(=O)O[C@@]21C (stereo partly drawn) [Compound 129, 3-Descladinosyl-3-oxo-6-O-methyl-N9a-desmethyl-11,12-dideoxy-12,11-(oxycarbonylimino)-6′-(N-methylcyclopropylamino) Azithromycin]"
8 to 32,≥ 32,≥ 32,≥ 32,≥ 32,"CC[C@H]1OC(=O)C(C)C(=O)[C@H](C)[C@@H](OC2OC(CN3CCC3)CC(N(C)C)C2O)[C@](C)(OC)C[C@@H](C)CN[C@H](C)[C@H]2NC(=O)O[C@@]21C (stereo partly drawn) [Compound 121, 3-Descladinosyl-3-oxo-6-O-methyl-N9a-desmethyl-11,12-dideoxy-12,11-(oxycarbonylimino)-6′-(1-azetininyl) Azithromycin]"
